Laboratory results as given in US9725459B2, “3-oxo-tetrahydro-furo[3,2-B]pyrrol-4(5H)-yl) derivatives I” (GRÜNENTHAL GMBH, priority 2014, dated 2017).

Tests used:
Format in all cases: biochemical
human cathepsin S (CatS) = human cathepsin S (CatS) (Homo sapiens (Human), UniProt P25774); test: CatS functional enzyme assay; details: for Selectivity Ki(hCatS)/Ki(hCatK): ratio Ki(hCatS)/Ki(hCatK); for Ki: recombinant human CatS, substrate Z-VVR-AMC 5 μM, pH 6.5, Ki by Cheng Prusoff equation, read-out: hCatS, Ki
Method in brief: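 Recombinant human enzymes were incubated 10 min at RT with AMC substrate: CatS 0.0007 mU/well with Z-VVR-AMC 5 µM; CatK 0.00175 mU/well with Z-FR-AMC 40 µM; CatL 0.000874 mU/well with Z-VVR-AMC 40 µM. Fluorescence gave IC50, converted to Ki by Cheng-Prusoff.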

human cathepsin K (CatK) = human cathepsin K (CatK) (Homo sapiens (Human), UniProt P43235); test: CatK functional enzyme assay; details: recombinant human CatK, substrate Z-FR-AMC 40 μM, pH 5.5; Ki by Cheng Prusoff equation; read-out: hCatK, Ki
Method in brief: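 Recombinant human enzymes in 50 mM NaOAc, 10 mM EDTA, 1 mM DTT, 0.01% Triton X-100, pH 5.5, 10 min at RT. CatK: 0.00175 mU/well with 40 μM Z-FR-AMC; CatL: 0.000874 mU/well with 40 μM Z-VVR-AMC. AMC fluorescence read; IC50 converted to Ki via Cheng–Prusoff.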

human cathepsin L (CatL) = human cathepsin L (CatL) (Homo sapiens (Human), UniProt P07711); test: CatL functional enzyme assay; details: read-out: hCatL, inhibition [%] at 31.6 μM
Sequence of human cathepsin L (CatL) (P07711 114-333): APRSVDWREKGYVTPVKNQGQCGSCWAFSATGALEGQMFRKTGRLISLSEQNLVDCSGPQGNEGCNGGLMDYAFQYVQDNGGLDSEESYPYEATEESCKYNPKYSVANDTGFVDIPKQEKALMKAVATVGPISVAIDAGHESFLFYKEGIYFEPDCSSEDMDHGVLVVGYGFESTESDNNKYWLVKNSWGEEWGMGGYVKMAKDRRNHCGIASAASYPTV

Sequence of human cathepsin K (CatK) (P43235 115-329): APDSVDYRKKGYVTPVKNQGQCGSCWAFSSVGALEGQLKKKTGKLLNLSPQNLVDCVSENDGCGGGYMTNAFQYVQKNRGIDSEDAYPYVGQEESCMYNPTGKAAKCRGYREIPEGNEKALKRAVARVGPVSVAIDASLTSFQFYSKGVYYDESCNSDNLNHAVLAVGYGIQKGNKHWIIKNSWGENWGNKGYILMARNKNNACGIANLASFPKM
Sequence of human cathepsin S (CatS) (P25774 115-331): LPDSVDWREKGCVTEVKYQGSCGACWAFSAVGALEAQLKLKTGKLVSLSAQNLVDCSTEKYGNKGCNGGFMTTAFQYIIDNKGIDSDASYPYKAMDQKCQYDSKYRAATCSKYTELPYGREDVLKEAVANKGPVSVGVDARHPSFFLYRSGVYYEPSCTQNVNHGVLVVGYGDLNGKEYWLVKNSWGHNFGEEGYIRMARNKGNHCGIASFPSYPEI

SMILES	Selectivity Ki(hCatS)/Ki(hCatK) (human cathepsin S (CatS))	Ki (human cathepsin S (CatS)) [nM]	Ki (human cathepsin K (CatK)) [nM]	inhibition at 31.6 µM (human cathepsin L (CatL)) [%]
O=C(N[C@H](C(=O)N1C[C@H](Cl)[C@H]2OCC(=O)[C@H]21)C1CCCCC1)c1cc(F)c(-c2cccnn2)s1 [Example 54, N-((S)-2-((3aS,6S,6aS)-6-chloro-3-oxotetrahydro-2H-furo[3,2-b]pyrrol-4(5H)-yl)-1-cyclohexyl-2-oxoethyl)-4-fluoro-5-(pyridazin-3-yl)thiophene-2-carboxamide]	25.1	528	21	27
O=C(N[C@H](C(=O)N1C[C@H](Cl)[C@H]2OCC(=O)[C@H]21)C1CCCCC1)c1ncc(-c2cncnc2)s1 [Example 24, N-((S)-2-((3aS,6S,6aS)-6-chloro-3-oxotetrahydro-2H-furo[3,2-b]pyrrol-4(5H)-yl)-1-cyclohexyl-2-oxoethyl)-5-(pyrimidin-5-yl)thiazole-2-carboxamide]	2.8	61	22	10
O=C(N[C@H](C(=O)N1C[C@H](Cl)[C@H]2OCC(=O)[C@H]21)C1CCCCC1)c1ccc(-c2ccc[n+]([O-])n2)s1 [Example 79, 3-(5-(((S)-2-((3aS,6S,6aS)-6-chloro-3-oxotetrahydro-2H-furo[3,2-b]pyrrol-4(5H)-yl)-1-cyclohexyl-2-oxoethyl)carbamoyl)thiophen-2-yl)pyridazine 1-oxide]	2.7	56	21	25
O=C(N[C@H](C(=O)N1C[C@H](Cl)[C@H]2OCC(=O)[C@H]21)C1CCCCC1)c1cc(F)c(-c2ccnnc2)s1 [Example 40, N-((S)-2-((3aS,6S,6aS)-6-chloro-3-oxotetrahydro-2H-furo[3,2-b]pyrrol-4(5H)-yl)-1-cyclohexyl-2-oxoethyl)-4-fluoro-5-(pyridazin-4-yl)thiophene-2-carboxamide]	37.8	453	12	39
Cc1nnccc1-c1ccc(C(=O)N[C@H](C(=O)N2C[C@H](Cl)[C@H]3OCC(=O)[C@H]32)C2CCCCC2)s1 [Example 58, N-((S)-2-((3aS,6S,6aS)-6-chloro-3-oxotetrahydro-2H-furo[3,2-b]pyrrol-4(5H)-yl)-1-cyclohexyl-2-oxoethyl)-5-(3-methylpyridazin-4-yl)thiophene-2-carboxamide]	1.5	51	34	21
O=C(N[C@H](C(=O)N1C[C@H](Cl)[C@H]2OCC(=O)[C@H]21)C1CCCCC1)c1ncc(-c2ccnc(C3CC3)c2)s1 [Example 82, N-((S)-2-((3aS,6S,6aS)-6-chloro-3-oxotetrahydro-2H-furo[3,2-b]pyrrol-4(5H)-yl)-1-cyclohexyl-2-oxoethyl)-5-(2-cyclopropylpyridin-4-yl)thiazole-2-carboxamide]	14.3	129	9	24
O=C(N[C@H](C(=O)N1C[C@H](Cl)[C@H]2OCC(=O)[C@H]21)C1CCCCC1)c1ccc(-c2ccc[n+]([O-])c2)s1 [Example 70, 3-(5-(((S)-2-((3aS,6S,6aS)-6-chloro-3-oxotetrahydro-2H-furo[3,2-b]pyrrol-4(5H)-yl)-1-cyclohexyl-2-oxoethyl)carbamoyl)thiophen-2-yl)pyridine 1-oxide]	1.5	27	19	41
O=C(N[C@H](C(=O)N1C[C@H](Cl)[C@H]2OCC(=O)[C@H]21)C1CCCCC1)c1ccc(-c2ccncc2)o1 [Example 12, N-((S)-2-((3aS,6S,6aS)-6-chloro-3-oxotetrahydro-2H-furo[3,2-b]pyrrol-4(5H)-yl)-1-cyclohexyl-2-oxoethyl)-5-(pyridin-4-yl)furan-2-carboxamide]	10.4	521	50	18
Cc1ncc(-c2ccc(C(=O)N[C@H](C(=O)N3C[C@H](Cl)[C@H]4OCC(=O)[C@H]43)C3CCCCC3)s2)c(C)n1 [Example 81, N-((S)-2-((3aS,6S,6aS)-6-chloro-3-oxotetrahydro-2H-furo[3,2-b]pyrrol-4(5H)-yl)-1-cyclohexyl-2-oxoethyl)-5-(2,4-dimethylpyrimidin-5-yl)thiophene-2-carboxamide]	12.1	133	11	18
O=C(N[C@H](C(=O)N1C[C@H](Cl)[C@H]2OCC(=O)[C@H]21)C1CCCCC1)c1ncc(-c2cccnc2)s1 [Example 45, N-((S)-2-((3aS,6S,6aS)-6-chloro-3-oxotetrahydro-2H-furo[3,2-b]pyrrol-4(5H)-yl)-1-cyclohexyl-2-oxoethyl)-5-(pyridin-3-yl)thiazole-2-carboxamide]	32.8	262	8	26
O=C(N[C@H](C(=O)N1C[C@H](Cl)[C@H]2OCC(=O)[C@H]21)C1CCCCC1)c1ccc(-c2cncc(F)c2)s1 [Example 16, N-((S)-2-((3aS,6S,6aS)-6-chloro-3-oxotetrahydro-2H-furo[3,2-b]pyrrol-4(5H)-yl)-1-cyclohexyl-2-oxoethyl)-5-(5-fluoropyridin-3-yl)thiophene-2-carboxamide]	19.9	259	13	15
O=C(N[C@H](C(=O)N1C[C@H](Cl)[C@H]2OCC(=O)[C@H]21)C1CCCCC1)c1ccc(-c2ccncc2F)s1 [Example 31, N-((S)-2-((3aS,6S,6aS)-6-chloro-3-oxotetrahydro-2H-furo[3,2-b]pyrrol-4(5H)-yl)-1-cyclohexyl-2-oxoethyl)-5-(3-fluoropyridin-4-yl)thiophene-2-carboxamide]	88.0	440	5	14
O=C(N[C@H](C(=O)N1C[C@H](Cl)[C@H]2OCC(=O)[C@H]21)C1CCCCC1)c1ncc(-c2ccnnc2)s1 [Example 18, N-((S)-2-((3aS,6S,6aS)-6-chloro-3-oxotetrahydro-2H-furo[3,2-b]pyrrol-4(5H)-yl)-1-cyclohexyl-2-oxoethyl)-5-(pyridazin-4-yl)thiazole-2-carboxamide]	1.2	37	31	15
Cc1ccnnc1-c1ccc(C(=O)N[C@H](C(=O)N2C[C@H](Cl)[C@H]3OCC(=O)[C@H]32)C2CCCCC2)s1 [Example 84, N-((S)-2-((3aS,6S,6aS)-6-chloro-3-oxotetrahydro-2H-furo[3,2-b]pyrrol-4(5H)-yl)-1-cyclohexyl-2-oxoethyl)-5-(4-methylpyridazin-3-yl)thiophene-2-carboxamide]	21.8	358	16	6
